From the CheMixHub viscosity set

Experiment: xn = mol fraction of the nth substance listed

CCOS(=O)(=O)[O-].CC[N+](CC)=C(N(C)C)N(C)C + CCO
viscosity [mPa·s], 100 kPa
Conditions	x1 = 0.1001	x1 = 0.2003	x1 = 0.2998	x1 = 0.4023	x1 = 0.4998	x1 = 0.6016	x1 = 0.6979	x1 = 0.8024	x1 = 0.8974
293.15 K	2.916	5.857	11.49	20.43	32.82	54.53	82.56	121	160.5
298.15 K	2.62	5.197	9.941	17.2	27.12	43.51	64.03	91.64	119.1
303.15 K	2.373	4.64	8.688	14.71	22.61	35.19	50.61	70.75	90.75
308.15 K	2.155	4.166	7.649	12.71	19.18	29.07	40.85	55.99	70.53
313.15 K	1.964	3.765	6.793	11.08	16.48	24.39	33.63	45.19	56.15
318.15 K	1.797	3.419	6.036	9.76	14.28	20.68	27.81	36.81	45.06
323.15 K	1.649	3.118	5.43	8.634	12.47	17.74	23.62	30.6	36.93

CC(C)OCCO + CCCN
viscosity [mPa·s], 101.33 kPa
Conditions	298.15 K	308.15 K	318.15 K
x1 = 0.0207	0.381	0.347	0.305
x1 = 0.0475	0.413	0.372	0.328
x1 = 0.0745	0.451	0.398	0.35
x1 = 0.1534	0.575	0.493	0.425
x1 = 0.2413	0.732	0.615	0.517
x1 = 0.2917	0.841	0.702	0.578
x1 = 0.3559	0.992	0.808	0.662
x1 = 0.4223	1.147	0.935	0.746
x1 = 0.4366	1.183	0.966	0.767
x1 = 0.5416	1.445	1.145	0.905
x1 = 0.6413	1.681	1.319	1.032
x1 = 0.7365	1.875	1.464	1.142
x1 = 0.8564	2.047	1.577	1.252
x1 = 0.9246	2.077	1.617	1.283
x2 = 0.0101	2.099	1.645	1.309

CC(C)OCCO + O=C1CCCN1
298.15 K, 101 kPa
Conditions	viscosity [mPa·s]
x1 = 0.0071	13.9
x1 = 0.0159	13.59
x1 = 0.0316	12.93
x1 = 0.0611	11.92
x1 = 0.1046	10.57
x1 = 0.1603	9.092
x1 = 0.2294	7.709
x1 = 0.2699	7.051
x1 = 0.3267	6.264
x1 = 0.3725	5.709
x1 = 0.4121	5.308
x1 = 0.4371	5.073
x1 = 0.4623	4.846
x1 = 0.5125	4.439
x1 = 0.5675	4.067
x1 = 0.6092	3.792
x1 = 0.6833	3.388
x1 = 0.7418	3.111
x1 = 0.7986	2.871
x1 = 0.8498	2.672
x1 = 0.888	2.528
x1 = 0.9155	2.412
x1 = 0.943	2.304
x1 = 0.9583	2.252
x1 = 0.9786	2.193

CC(C)OCCO + CN(C)C=O
298.15 K, 101 kPa
Conditions	viscosity [mPa·s]
x1 = 0.0025	0.815
x1 = 0.0124	0.827
x1 = 0.0296	0.854
x1 = 0.048	0.885
x1 = 0.0898	0.932
x1 = 0.1476	1.006
x1 = 0.1908	1.066
x1 = 0.2558	1.142
x1 = 0.3145	1.213
x1 = 0.344	1.247
x1 = 0.3645	1.274
x1 = 0.4159	1.34
x1 = 0.4723	1.42
x1 = 0.52	1.491
x1 = 0.562	1.543
x1 = 0.6131	1.617
x1 = 0.6641	1.697
x1 = 0.7547	1.818
x1 = 0.7959	1.874
x1 = 0.8833	2.005
x1 = 0.9392	2.069
x1 = 0.9642	2.093
x2 = 0.0058	2.104

CCOC(=O)CCl + OCc1ccccc1
viscosity [mPa·s], 101.3 kPa
Conditions	x1 = 0.1072	x1 = 0.2035	x1 = 0.2998	x1 = 0.395	x1 = 0.5	x1 = 0.5984	x1 = 0.6981	x1 = 0.7972	x1 = 0.8941
298.15 K	4.078	3.295	2.729	2.285	1.923	1.669	1.459	1.326	1.188
303.15 K	3.567	2.887	2.428	2.036	1.747	1.516	1.334	1.209	1.092
308.15 K	3.058	2.48	2.127	1.815	1.572	1.365	1.209	1.093	0.997

CCOCCOCCOCC + CCCN
298.15 K, 101 kPa
Conditions	viscosity [mPa·s]
x1 = 0.005	0.361
x1 = 0.0106	0.367
x1 = 0.0197	0.379
x1 = 0.0413	0.402
x1 = 0.0623	0.423
x1 = 0.0897	0.451
x1 = 0.1329	0.498
x1 = 0.1762	0.538
x1 = 0.2138	0.572
x1 = 0.2434	0.6
x1 = 0.2446	0.603
x1 = 0.2849	0.636
x1 = 0.2887	0.64
x1 = 0.3251	0.672
x1 = 0.3686	0.709
x1 = 0.4053	0.737
x1 = 0.4615	0.786
x1 = 0.5261	0.848
x1 = 0.5564	0.875
x1 = 0.6025	0.919
x1 = 0.6358	0.951
x1 = 0.6749	0.988
x1 = 0.7261	1.038
x1 = 0.7852	1.09
x1 = 0.8437	1.152
x1 = 0.8917	1.201
x1 = 0.9396	1.235
x1 = 0.9698	1.248

COC(=O)c1ccccc1 + CC#N
viscosity [mPa·s], 101.33 kPa
Conditions	x1 = 0.134	x1 = 0.255	x1 = 0.373	x1 = 0.48	x1 = 0.57	x1 = 0.666	x1 = 0.752	x1 = 0.837	x1 = 0.922
293.15 K	0.444	0.476	0.515	0.624	0.676	0.805	0.958	1.128	1.508
303.15 K	0.4	0.43	0.46	0.551	0.595	0.695	0.814	0.95	1.226
313.15 K	0.365	0.387	0.41	0.5	0.521	0.608	0.701	0.811	1.016
323.15 K	0.329	0.351	0.367	0.446	0.467	0.531	0.602	0.691	0.854

CCCC[n+]1ccn(C)c1.O=[N+]([O-])[O-] + CCO
101 kPa
Conditions	viscosity [mPa·s]
293.15 K, x1 = 0.8	73.11
303.15 K, x1 = 0.6	22.05

CCCCOCCO + NCCO
viscosity [mPa·s]
Conditions	293.15 K	298.15 K	303.15 K	308.15 K	313.15 K	318.15 K	323.15 K
101 kPa, x2 = 0.177	4.615	3.961	3.431	2.994	2.629	2.325	2.07
101 kPa, x2 = 0.453	8.081	6.718	5.65	4.799	4.115	3.559	3.101
101 kPa, x2 = 0.659	12.25	9.951	8.19	6.823	5.747	4.888	4.197
101 kPa, x2 = 0.819	16.81	13.39	10.84	8.898	7.395	6.212	5.271
101 kPa, x2 = 0.946	21.65	17.02	13.6	11.03	9.061	7.538	6.342
101.3 kPa, x2 = 0.457	8.08	6.72	5.65	4.8	4.11	3.56	3.1
101.3 kPa, x2 = 0.664	12.25	9.95	8.19	6.82	5.75	4.89	4.2

c1ccc2c(c1)CCCC2 + C1CCCCC1
298.15 K, 101 kPa
Conditions	viscosity [mPa·s]
x1 = 0.1649	0.9811
x1 = 0.3447	1.127
x1 = 0.5442	1.324
x1 = 0.7597	1.619

CCCCCC(C)C + CCCCO
viscosity [mPa·s], 100 kPa
Conditions	x2 = 0.1005	x2 = 0.2014	x2 = 0.3002	x2 = 0.4	x2 = 0.5004	x2 = 0.6006	x2 = 0.7	x2 = 0.8001	x2 = 0.9
293.15 K	0.528	0.576	0.634	0.741	0.891	1.1	1.37	1.74	2.24
303.15 K	0.467	0.508	0.549	0.635	0.748	0.902	1.11	1.38	1.75
313.15 K	0.413	0.447	0.476	0.548	0.633	0.751	0.906	1.11	1.39
323.15 K	0.364	0.391	0.422	0.473	0.539	0.633	0.751	0.907	1.12

COC(=O)c1ccccc1 + CCO
viscosity [mPa·s], 100 kPa
Conditions	x1 = 0.05	x1 = 0.1	x1 = 0.2	x1 = 0.3	x1 = 0.4	x1 = 0.5	x1 = 0.6	x1 = 0.65	x1 = 0.8	x1 = 0.9
293.2 K	1.178	1.178	1.207	1.26	1.325	1.402	1.489	1.536	1.701	1.842
298.2 K	1.074	1.076	1.102	1.15	1.208	1.276	1.355	1.397	1.542	1.667
303.2 K	0.98	0.983	1.008	1.052	1.106	1.167	1.238	1.276	1.408	1.518
308.2 K	0.896	0.901	0.925	0.966	1.015	1.072	1.137	1.17	1.291	1.391
313.2 K	0.822	0.827	0.851	0.89	0.936	0.988	1.047	1.079	1.188	1.279

CCCCCCCCN(CCCCCCCC)CCCCCCCC + CCCCCCO
Conditions	viscosity [mPa·s]
298 K, 101.3 kPa, x1 = 0.00638	4.722

CNC=O + O=C1CCCCC1
viscosity [mPa·s], 101 kPa
Conditions	x1 = 0.0868	x1 = 0.1762	x1 = 0.2682	x1 = 0.3632	x1 = 0.461	x1 = 0.562	x1 = 0.6662	x1 = 0.7738	x1 = 0.885
303.15 K	1.804	1.786	1.762	1.739	1.714	1.693	1.668	1.646	1.618
308.15 K	1.645	1.63	1.61	1.592	1.57	1.553	1.532	1.513	1.49
313.15 K	1.472	1.463	1.451	1.439	1.425	1.413	1.4	1.387	1.371
318.15 K	1.284	1.284	1.283	1.281	1.278	1.275	1.271	1.267	1.262
